# Data published in US11584747B2, “Substituted pyridopyrimidinonyl compounds useful as T cell activators” (BRISTOL-MYERS SQUIBB COMPANY, priority 2019, dated 2023).
# Where two headings read alike, the source gives them in different places.
# Columns and labels:
# human DGKα = human DGKα (Homo sapiens (Human), UniProt P23743); assay: DGKα LIPGLO assay (extruded liposome substrate, ADP-Glo luminescence); type: biochemical
# human DGKζ = human DGKζ (Homo sapiens (Human), UniProt Q13574); assay: DGKζ LIPGLO assay (extruded liposome substrate, ADP-Glo luminescence); type: biochemical
# [1] = tested on: human venous whole blood (IFN-γ); assay: Human whole blood IFN-γ assay; type: cell-based
# Procedure: Human venous whole blood (22.5 μL per well), obtained from healthy donors, was pre-treated with compounds for one hour at 37° C. in a humidified 95% air/5% CO2 incubator. The blood was stimulated with 2.5 μL anti-human CD3 and anti-CD28 mAb at a final concentration of 1 μg/mL each for 24 hours at 37° C. IFN-γ in the supernatants was measured using AlphLISA kit (Cat #AL217).
# [2] = liposome assay, read-out: DGK alpha LIPGLO IC50
# [3] = liposome assay, read-out: DGK zeta LIPGLO IC50
# [4] = Homo sapiens, whole blood, normalized to 3 μM reference compound as 100% activation, read-out: IFN-γ Whole Blood Normalized EC50
# [5] = whole blood, normalized to 3 μM reference compound as 100% activation, read-out: IFN-γ Whole Blood Normalized EC50
# Chain of human DGKζ (Q13574 other isoform, or with tags, fused parts or gaps): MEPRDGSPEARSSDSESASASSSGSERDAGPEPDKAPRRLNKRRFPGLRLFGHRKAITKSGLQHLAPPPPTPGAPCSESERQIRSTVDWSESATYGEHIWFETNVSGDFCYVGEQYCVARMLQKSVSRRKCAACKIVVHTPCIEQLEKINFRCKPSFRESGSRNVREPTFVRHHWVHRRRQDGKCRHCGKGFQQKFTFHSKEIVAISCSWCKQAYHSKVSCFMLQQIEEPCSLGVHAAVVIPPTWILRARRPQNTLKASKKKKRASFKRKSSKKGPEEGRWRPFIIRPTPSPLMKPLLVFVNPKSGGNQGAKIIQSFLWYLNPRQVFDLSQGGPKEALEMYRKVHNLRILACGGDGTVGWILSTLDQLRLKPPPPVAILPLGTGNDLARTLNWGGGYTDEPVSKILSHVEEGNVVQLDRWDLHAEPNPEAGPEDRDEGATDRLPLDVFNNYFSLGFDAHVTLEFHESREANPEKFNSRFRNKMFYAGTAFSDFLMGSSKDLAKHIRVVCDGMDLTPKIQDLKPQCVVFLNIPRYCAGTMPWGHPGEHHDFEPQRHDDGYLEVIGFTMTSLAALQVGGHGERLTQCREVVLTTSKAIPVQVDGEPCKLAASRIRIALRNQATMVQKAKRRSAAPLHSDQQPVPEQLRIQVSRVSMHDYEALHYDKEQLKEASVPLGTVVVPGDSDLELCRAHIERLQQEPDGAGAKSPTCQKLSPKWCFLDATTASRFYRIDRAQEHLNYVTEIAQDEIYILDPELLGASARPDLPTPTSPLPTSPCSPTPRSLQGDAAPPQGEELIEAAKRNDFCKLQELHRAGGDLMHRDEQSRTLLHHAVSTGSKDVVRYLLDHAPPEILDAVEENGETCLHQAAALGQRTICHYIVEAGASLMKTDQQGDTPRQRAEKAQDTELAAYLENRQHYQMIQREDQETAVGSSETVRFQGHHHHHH
# Chain of human DGKα (P23743 whole entry, looked up): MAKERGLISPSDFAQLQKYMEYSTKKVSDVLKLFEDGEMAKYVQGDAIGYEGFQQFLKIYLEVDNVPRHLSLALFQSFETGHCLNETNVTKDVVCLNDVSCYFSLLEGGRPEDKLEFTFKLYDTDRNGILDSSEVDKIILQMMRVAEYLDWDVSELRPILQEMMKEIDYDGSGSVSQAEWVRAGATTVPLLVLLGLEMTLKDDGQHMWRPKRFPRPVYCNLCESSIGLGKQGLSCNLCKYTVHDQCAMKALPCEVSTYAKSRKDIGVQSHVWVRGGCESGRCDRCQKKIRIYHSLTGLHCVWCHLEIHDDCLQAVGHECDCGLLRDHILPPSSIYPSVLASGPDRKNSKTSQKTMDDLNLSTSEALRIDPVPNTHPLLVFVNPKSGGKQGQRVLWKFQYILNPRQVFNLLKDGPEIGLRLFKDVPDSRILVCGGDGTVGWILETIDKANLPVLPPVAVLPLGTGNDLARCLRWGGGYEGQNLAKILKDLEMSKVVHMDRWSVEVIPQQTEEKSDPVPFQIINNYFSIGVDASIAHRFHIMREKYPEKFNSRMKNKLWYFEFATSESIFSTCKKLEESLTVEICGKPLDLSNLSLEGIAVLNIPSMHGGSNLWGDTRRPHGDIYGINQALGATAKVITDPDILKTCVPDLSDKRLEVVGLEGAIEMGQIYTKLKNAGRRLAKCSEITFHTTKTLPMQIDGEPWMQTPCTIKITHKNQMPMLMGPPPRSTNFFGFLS
SMILES,IC50 (human DGKα; [2]) [nM],IC50 (human DGKζ; [3]) [nM],"IC50 (human DGKα; liposome (LIPGLO) assay, read-out: DGK alpha (liposome assay) IC50) [nM]","IC50 (human DGKζ; liposome (LIPGLO) assay, read-out: DGK zeta (liposome assay) IC50) [nM]","EC50 ([1]; human whole blood, anti-CD3 plus anti-CD28 stimulation, 24 hours, read-out: IFN-γ Whole Blood EC50) [nM]","EC50 [1, 4] [nM]","EC50 [1, 5] [nM]"
"C[C@@H]1CN(c2nc(=O)n(C)c3ccc(C#N)nc23)[C@@H](C)CN1Cc1cc(F)c(F)cc1Cl [Example 134, 4-((2S,5R)-4-(2-chloro-4,5-difluorobenzyl)-2,5-dimethylpiperazin-1-yl)-1-methyl-2-oxo-1,2-dihydropyrido[3,2-d]pyrimidine-6-carbonitrile]",4260,780,,,,3670,
"CC(c1ccc2c(c1)OC(F)(F)O2)N1C[C@H](C)N(c2nc(=O)n(C)c3ccc(C#N)nc23)C[C@H]1C (single isomer, unassigned) [Example 167]",17800,2380,,,,,3850
"C[C@H]1CN(C(c2ccc(F)cc2)c2ccc(C(F)(F)F)cn2)[C@H](CO)CN1c1nc(=O)n(C)c2ccc(C#N)nc12 (single isomer, unassigned) [Example 182]",430,2030,,,,,2530
"CC(c1ccc(C2CC2)cc1F)N1C[C@H](C)N(c2nc(=O)n(C)c3ccc(C#N)nc23)C[C@H]1C (single isomer, unassigned) [Example 169]",4620,2180,,,,,1330
"C[C@@H]1CN(c2nc(=O)n(C)c3ccc(C#N)nc23)[C@@H](C)CN1C(c1ccc(F)cc1)c1ccc(C#N)cc1 (stereo partly drawn) [Example 375, 4-((2S,5R)-4-((4-cyanophenyl)(4-fluorophenyl)methyl)-2,5-dimethylpiperazin-1-yl)-1-methyl-2-oxo-1,2-dihydropyrido[3,2-d]pyrimidine-6-carbonitrile]",,,1390,6050,2160,,
"CC[C@@H]1CN(c2nc(=O)n(C)c3ccc(C#N)nc23)[C@@H](C)CN1C(c1ccc(F)cc1)c1cccc(C(F)(F)F)n1 (single isomer, unassigned) [Example 65]",1190,100,,,,,360
"CCC(c1ccc(OC(F)(F)F)cc1F)N1C[C@H](C)N(c2nc(=O)n(C)c3ccc(C#N)nc23)C[C@H]1C (single isomer, unassigned) [Example 153]",690,1980,,,,,2310
"CC(c1cc(F)c(F)c(F)c1)N1C[C@H](C)N(c2nc(=O)n(C)c3ccc(C#N)nc23)C[C@H]1C (single isomer, unassigned) [Example 139]",25600,2880,,,,20000,
"COC[C@@H]1CN(c2nc(=O)n(C)c3ccc(C#N)nc23)[C@@H](C)CN1C(c1ccc(F)cc1)c1ccc(C(F)(F)F)cn1 (single isomer, unassigned) [Example 178]",290,130,,,,91,
"C[C@@H]1CN(c2nc(=O)n(C)c3ccc(C#N)nc23)[C@@H](C)CN1C(c1ccc(F)cc1)c1nc(C2CC2)cs1 (single isomer, unassigned) [Example 158]",660,570,,,,,1580
"C[C@@H]1CN(c2nc(=O)n(C)c3ccc(C#N)nc23)[C@@H](C)CN1C(c1ccc(F)cc1)c1csc(C(F)(F)F)n1 (single isomer, unassigned) [Example 171]",1560,560,,,,,220
"C[C@@H]1CN(c2nc(=O)n(C)c3ccc(C#N)nc23)[C@@H](C)CN1Cc1ccc(F)c(F)c1 [Example 133, 4-((2 S,5R)-4-(3,4-difluorobenzyl)-2,5-dimethylpiperazin-1-yl)-1-methyl-2-oxo-1,2-dihydropyrido[3,2-d]pyrimidine-6-carbonitrile]",530,240,,,,710,
"CC[C@H]1CN(C(c2ccc(F)cc2)c2cccc(C(F)(F)F)n2)[C@H](C)CN1c1nc(=O)n(C)c2ccc(C#N)nc12 (stereo partly drawn) [Example 120, 4-((2S,5R)-2-ethyl-4-((4-fluorophenyl)(6-(trifluoromethyl)pyridin-2-yl)methyl)-5-methylpiperazin-1-yl)-1-methyl-2-oxo-1,2-dihydropyrido[3,2-d]pyrimidine-6-carbonitrile]",1710,740,,,,,
"CC[C@@H]1CN(c2nc(=O)n(C)c3ccc(C#N)nc23)[C@@H](C)CN1C(c1ccc(F)cc1)c1nc(C2CC2)cs1 (single isomer, unassigned) [Example 50]",110,37,,,,,

# The next lines start with results.
IC50 (human DGKα; [2]) [nM],IC50 (human DGKζ; [3]) [nM],"IC50 (human DGKα; liposome (LIPGLO) assay, read-out: DGK alpha (liposome assay) IC50) [nM]","IC50 (human DGKζ; liposome (LIPGLO) assay, read-out: DGK zeta (liposome assay) IC50) [nM]","EC50 ([1]; human whole blood, anti-CD3 plus anti-CD28 stimulation, 24 hours, read-out: IFN-γ Whole Blood EC50) [nM]",SMILES,"EC50 [1, 4] [nM]","EC50 [1, 5] [nM]"
2,230,,,,"CC[C@@H]1CN(c2nc(=O)n(C)c3ccc(C#N)nc23)[C@@H](CC)CN1Cc1ccc(OC(F)(F)F)cc1F [Example 27, 4-((2S,5R)-2,5-diethyl-4-(2-fluoro-4-(trifluoromethoxy)benzyl)piperazin-1-yl)-1-methyl-2-oxo-1,2-dihydropyrido[3,2-d]pyrimidine-6-carbonitrile]",620,
300,260,,,,"CC[C@@H]1CN(c2nc(=O)n(C)c3ccc(C#N)nc23)[C@@H](C)CN1C(C)c1ccc(C(F)(F)F)cc1F (single isomer, unassigned) [Example 59]",,500
320,2140,,,,"CC[C@H]1CN(C(C)c2ccc(OC)cc2)[C@H](CC)CN1c1nc(=O)n(C)c2ccc(C#N)nc12 (single isomer, unassigned) [Example 17]",2890,
390,850,,,,"CC[C@@H]1CN(c2nc(=O)n(C)c3ccc(C#N)nc23)[C@@H](C)CN1C(C)c1ccc(OC(F)(F)F)cc1 (single isomer, unassigned) [Example 49]",,2340
1380,1330,,,,"CC[C@H]1CN(C(C)c2ccc(OC(F)(F)F)cc2)[C@H](C)CN1c1nc(=O)n(C)c2ccc(C#N)nc12 (stereo partly drawn) [Example 123, 4-((2S,5R)-2-ethyl-5-methyl-4-(1-(4-(trifluoromethoxy)phenyl)ethyl)piperazin-1-yl)-1-methyl-2-oxo-1,2-dihydropyrido[3,2-d]pyrimidine-6-carbonitrile]",2570,
330,44,,,,"CC[C@@H]1CN(c2nc(=O)n(C)c3ccc(C#N)nc23)[C@@H](C)CN1C(C)c1ccc(C2CC2)cc1F (single isomer, unassigned) [Example 91]",190,
4050,3100,,,,"CC[C@H]1CN(C(C)c2ccc(OC(C)C)cc2)[C@H](CC)CN1c1nc(=O)n(C)c2ccc(C#N)nc12 (single isomer, unassigned) [Example 19]",2060,
180,360,,,,"CC(c1ccc(C(F)(F)F)cc1)N1C[C@H](C)N(c2nc(=O)n(C)c3ccc(C#N)nc23)C[C@H]1C (single isomer, unassigned) [Example 140]",,430
1470,220,,,,"CC[C@H]1CN(C(C)c2ccc(C(C)(C)C#N)cc2)[C@H](CC)CN1c1nc(=O)n(C)c2ccc(C#N)nc12 (stereo partly drawn) [Example 197, 4-((2S,5R)-4-(1-(4-(2-cyanopropan-2-yl)phenyl)ethyl)-2,5-diethylpiperazin-1-yl)-1-methyl-2-oxo-1,2-dihydropyrido[3,2-d]pyrimidine-6-carbonitrile]",,310
40,21,,,,"CC[C@@H]1CN(c2nc(=O)n(C)c3ccc(C#N)nc23)[C@@H](C)CN1C(C)c1ccc(C2CC2)cc1 (single isomer, unassigned) [Example 63]",,70
670,22,,,,"CC[C@@H]1CN(c2nc(=O)n(C)c3ccc(C#N)nc23)[C@@H](C)CN1C(C)c1ccc2c(c1)OC(F)(F)O2 (single isomer, unassigned) [Example 71]",,66
110,76,,,,"CC[C@@H]1CN(c2nc(=O)n(C)c3ccc(C#N)nc23)[C@@H](C)CN1C(c1ccc(F)cc1)c1ccccn1 (single isomer, unassigned) [Example 88]",,48
700,5950,,,,"CC(c1ccc(OC(F)(F)F)cc1)N1C[C@H](C)N(c2nc(=O)n(C)c3ccc(C#N)nc23)C[C@H]1C (single isomer, unassigned) [Example 132]",,2650
1270,1760,,,,"CC(c1ccc(C(F)(F)F)cc1)N1C[C@H](C)N(c2nc(=O)n(C)c3ccc(C#N)nc23)C[C@H]1C (single isomer, unassigned) [Example 141]",,3550
26,110,,,,"CC(c1ccc(F)cc1)N1C[C@H](C)N(c2nc(=O)n(C)c3ccc(C#N)nc23)C[C@H]1C (single isomer, unassigned) [Example 128]",,
210,33,,,,"CC[C@@H]1CN(c2nc(=O)n(C)c3ccc(C#N)nc23)[C@@H](C)CN1C(C)c1ccc(OCC2CC2)cc1 (single isomer, unassigned) [Example 67]",,
95,16,,,,"CC[C@H]1CN(C(C)c2ccc(C(F)(F)F)cc2F)[C@H](C)CN1c1nc(=O)n(C)c2ccc(C#N)nc12 (stereo partly drawn) [Example 118, 4-((2S,5R)-2-ethyl-4-(1-(2-fluoro-4-(trifluoromethyl)phenyl)ethyl)-5-methylpiperazin-1-yl)-1-methyl-2-oxo-1,2-dihydropyrido[3,2-d]pyrimidine-6-carbonitrile]",,
1500,,,,,"CC[C@@H]1CN(c2nc(=O)n(C)c3ccc(C#N)nc23)[C@@H](C)CN1C(C)c1ccc2c(c1)OC(F)(F)O2 (single isomer, unassigned) [Example 72]",,790
30,25,,,,"CC[C@H]1CN(C(C)c2ccc(OC(C)C)cc2)[C@H](CC)CN1c1nc(=O)n(C)c2ccc(C#N)nc12 (single isomer, unassigned) [Example 18]",,
